ChEMBL document CHEMBL1133371, “Amido-(propyl and allyl)-hydroxybenzamidines: development of achiral inhibitors of factor Xa” (Bioorg Med Chem Lett, 2000)

What was measured:
Prothrombin = Prothrombin (Homo sapiens, UniProt P00734); experiment: In vitro inhibition of coagulation factor IIa.
Coagulation factor X = Coagulation factor X (Homo sapiens, UniProt P00742); experiment: In vitro inhibition of coagulation factor Xa.
Serine protease 1 = Serine protease 1 (Homo sapiens, UniProt P07477); experiment: In vitro inhibition of trypsin.
Chain of Serine protease 1 (P07477 whole entry): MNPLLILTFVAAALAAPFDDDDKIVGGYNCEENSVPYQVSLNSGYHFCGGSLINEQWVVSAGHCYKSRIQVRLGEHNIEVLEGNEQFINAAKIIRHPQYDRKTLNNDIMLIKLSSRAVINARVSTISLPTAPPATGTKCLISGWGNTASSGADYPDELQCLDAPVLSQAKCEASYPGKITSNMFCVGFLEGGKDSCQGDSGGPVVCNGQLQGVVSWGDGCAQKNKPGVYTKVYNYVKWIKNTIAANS

[1] = target: Vitamin K-dependent protein C (Homo sapiens, UniProt P04070); experiment: Compound was evaluated for the inhibitory activity against Activated protein C
Chain of Vitamin K-dependent protein C (P04070 43-197 limits assumed): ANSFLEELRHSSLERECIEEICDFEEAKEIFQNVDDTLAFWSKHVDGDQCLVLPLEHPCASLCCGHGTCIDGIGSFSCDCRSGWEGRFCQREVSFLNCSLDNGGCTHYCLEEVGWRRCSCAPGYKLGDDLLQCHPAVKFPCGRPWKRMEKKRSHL
Chain of Vitamin K-dependent protein C (P04070 212-461 limits assumed): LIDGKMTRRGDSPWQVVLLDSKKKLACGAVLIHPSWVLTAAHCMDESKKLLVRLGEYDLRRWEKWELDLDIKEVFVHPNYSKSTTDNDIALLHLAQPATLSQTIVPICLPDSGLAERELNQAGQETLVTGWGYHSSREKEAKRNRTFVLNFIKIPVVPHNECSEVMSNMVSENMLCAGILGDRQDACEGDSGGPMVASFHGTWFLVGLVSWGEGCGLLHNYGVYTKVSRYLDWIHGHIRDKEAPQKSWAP

Plasminogen = Plasminogen (Homo sapiens, UniProt P00747); experiment: Compound was tested for its inhibitory activity against Plasmin
Chain of Plasminogen (P00747 97-580 limits assumed): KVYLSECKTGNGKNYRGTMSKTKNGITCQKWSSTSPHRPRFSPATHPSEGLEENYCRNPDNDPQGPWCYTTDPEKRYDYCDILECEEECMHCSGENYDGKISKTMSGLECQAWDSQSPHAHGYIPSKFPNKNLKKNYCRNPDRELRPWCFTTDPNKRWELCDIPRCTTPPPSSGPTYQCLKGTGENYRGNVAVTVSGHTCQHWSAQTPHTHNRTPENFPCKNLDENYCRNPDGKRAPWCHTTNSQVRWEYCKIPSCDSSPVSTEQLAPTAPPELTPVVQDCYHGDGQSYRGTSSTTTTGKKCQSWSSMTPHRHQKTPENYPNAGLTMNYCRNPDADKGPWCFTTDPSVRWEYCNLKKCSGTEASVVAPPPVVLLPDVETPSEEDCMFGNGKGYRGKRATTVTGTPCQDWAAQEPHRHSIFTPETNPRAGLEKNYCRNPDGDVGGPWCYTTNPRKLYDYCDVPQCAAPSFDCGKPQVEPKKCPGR
Chain of Plasminogen (P00747 581-810 limits assumed): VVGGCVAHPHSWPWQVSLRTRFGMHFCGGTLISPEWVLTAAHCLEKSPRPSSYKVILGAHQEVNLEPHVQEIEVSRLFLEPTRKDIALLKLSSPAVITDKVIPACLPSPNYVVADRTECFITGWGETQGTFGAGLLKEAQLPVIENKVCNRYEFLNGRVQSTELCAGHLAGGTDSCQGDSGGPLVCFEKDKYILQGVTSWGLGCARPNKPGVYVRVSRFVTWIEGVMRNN

[2] = target: Tissue-type plasminogen activator (Homo sapiens, UniProt P00750); experiment: Compound was tested for its inhibitory activity against tissue plasminogen activator
Chain of Tissue-type plasminogen activator (P00750 whole entry): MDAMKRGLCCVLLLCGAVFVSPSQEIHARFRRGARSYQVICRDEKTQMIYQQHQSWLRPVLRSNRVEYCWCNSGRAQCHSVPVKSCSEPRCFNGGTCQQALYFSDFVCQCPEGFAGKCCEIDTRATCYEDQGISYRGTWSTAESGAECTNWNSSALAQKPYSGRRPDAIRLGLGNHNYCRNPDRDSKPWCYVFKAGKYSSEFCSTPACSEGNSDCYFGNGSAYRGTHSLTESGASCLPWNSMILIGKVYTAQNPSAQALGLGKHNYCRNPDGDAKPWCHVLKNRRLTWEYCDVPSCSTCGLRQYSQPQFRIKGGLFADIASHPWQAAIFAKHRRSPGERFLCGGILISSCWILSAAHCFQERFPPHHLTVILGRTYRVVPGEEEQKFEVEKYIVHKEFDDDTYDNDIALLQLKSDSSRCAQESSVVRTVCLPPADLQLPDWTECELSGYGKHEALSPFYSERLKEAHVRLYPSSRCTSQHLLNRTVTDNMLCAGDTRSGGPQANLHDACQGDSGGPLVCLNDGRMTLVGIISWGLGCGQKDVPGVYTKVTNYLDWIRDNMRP

Homo sapiens = species on record: Homo sapiens; experiment: Ability to prolong the activated partial thromboplastin time (APTT) in plasma from human; type: functional, cell-free
Rattus norvegicus = species on record: Rattus norvegicus; experiment: Ability to prolong the activated partial thromboplastin time (APTT) in plasma from rat
Canis lupus familiaris = species on record: Canis lupus familiaris; experiment: Ability to prolong the activated partial thromboplastin time (APTT) in plasma from dog
Oryctolagus cuniculus = species on record: Oryctolagus cuniculus; experiment: Ability to prolong the activated partial thromboplastin time (APTT) in plasma from rabbit

Chain of Coagulation factor X (P00742 41-179 limits assumed): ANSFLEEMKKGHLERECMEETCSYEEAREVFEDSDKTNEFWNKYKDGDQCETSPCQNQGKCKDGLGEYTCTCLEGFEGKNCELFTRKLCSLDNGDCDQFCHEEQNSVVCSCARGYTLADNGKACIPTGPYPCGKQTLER
Chain of Coagulation factor X (P00742 235-488 limits assumed): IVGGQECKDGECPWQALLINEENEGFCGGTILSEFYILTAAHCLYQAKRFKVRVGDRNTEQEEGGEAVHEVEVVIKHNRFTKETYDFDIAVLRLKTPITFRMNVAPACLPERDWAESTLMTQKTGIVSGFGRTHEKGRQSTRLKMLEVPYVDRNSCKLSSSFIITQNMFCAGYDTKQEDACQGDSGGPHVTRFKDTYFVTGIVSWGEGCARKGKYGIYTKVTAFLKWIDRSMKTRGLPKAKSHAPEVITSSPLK

Row | SMILES | Ki (Prothrombin) | Ki (Coagulation factor X) | Ki (Serine protease 1) | also measured
1 | N=C(N)c1ccc(O)c(/C=C/CNC(=O)c2ccc(-c3c[nH]cn3)cc2)c1 | > 4 µM | 0.019 µM | 1.8 µM | 
2 | N=C(N)c1ccc(O)c(/C=C/CNC(=O)c2ccc(-c3ncc[nH]3)cc2)c1 | > 4 µM | 0.128 µM | 1.4 µM | 
3 | N=C(N)c1ccc(O)c(CCCNC(=O)c2ccc(-c3cccnc3)cc2)c1 | > 4 µM | 0.038 µM | 1.9 µM | 
4 | N=C(N)c1ccc(O)c(/C=C/CNC(=O)c2ccc(-c3ccccn3)s2)c1 | > 4 µM | 0.037 µM | 1.4 µM | 
5 | COC(=O)[C@H](Cc1cccc(C(=N)N)c1)[C@@H](C)NC(=O)c1ccc(-c2ccccc2)cc1 |  | 0.005 µM |  | 
6 | N=C(N)c1ccc(O)c(CCCNC(=O)c2ccc(-c3c[nH]cn3)cc2)c1 | > 4 µM | 0.254 µM | ~2.9 µM | 
7 | N=C(N)c1ccc(O)c(/C=C/CNC(=O)c2ccc(-c3ccnc(C(N)=O)c3)cc2)c1 | > 4 µM | 0.00075 µM | 2.2 µM | Ki [1]: ~18.5 µM; Ki (Plasminogen): > 7.3 µM; Ki [2]: 7.7 µM; Concentration (Homo sapiens): 0.87 µM; Concentration (Rattus norvegicus): 1.7 µM; Concentration (Canis lupus familiaris): 0.99 µM; Concentration (Oryctolagus cuniculus): 0.51 µM
8 | N=C(N)c1cccc(CCCNC(=O)c2ccc(-c3ccccc3)cc2)c1 |  | 1 µM |  | 
9 | CC(C)(C)c1ccc(C(=O)NCCCc2cc(C(=N)N)ccc2O)cc1 | > 4 µM | 0.059 µM | 2.2 µM | 
10 | N=C(N)c1ccc(O)c(/C=C/CNC(=O)c2ccc(-c3cccc(C(N)=O)c3)cc2)c1 | > 4 µM | 0.005 µM | > 2.9 µM | 
11 | N=C(N)c1ccc(O)c(/C=C/CNC(=O)c2ccc(-c3ccccc3)cc2)c1 | > 4 µM | 0.051 µM | > 2.9 µM | 
12 | CC(C)(C)c1ccc(C(=O)NC/C=C/c2cc(C(=N)N)ccc2O)cc1 | 3.2 µM | 0.061 µM | 2.3 µM | 
13 | N=C(N)c1ccc(O)c(CCCNC(=O)c2cc3ccc(Cl)cc3s2)c1 | ~4 µM | 0.181 µM | > 2.9 µM | 
14 | N=C(N)c1ccc(O)c(CCCNC(=O)c2ccc(-c3ccccn3)s2)c1 | > 4 µM | 0.131 µM | > 2.9 µM | 
15 | N=C(N)c1ccc(O)c(/C=C/CNC(=O)c2ccc(-c3ccc(S(N)(=O)=O)cc3)cc2)c1 | > 4 µM | 0.012 µM | 1.6 µM | 
16 | N=C(N)c1ccc(O)c(/C=C/CNC(=O)c2ccc(-c3ccccc3S(N)(=O)=O)cc2)c1 | > 4 µM | 0.002 µM | 1.5 µM | 
17 | COC(=O)[C@H](Cc1cccc(C(=N)N)c1)[C@@H](C)NC(=O)c1ccc(-c2cccc(C(N)=O)c2)cc1 |  | 0.0005 µM |  | Ki [1]: > 18.5 µM; Ki (Plasminogen): 0.14 µM; Ki [2]: > 8.7 µM
18 | N=C(N)c1ccc(O)c(/C=C/CNC(=O)c2ccc(-c3cccc(S(N)(=O)=O)c3)cc2)c1 | > 4 µM | 0.009 µM | 0.24 µM | 
19 | N=C(N)c1ccc(O)c(/C=C/CNC(=O)c2cc3nnc(O)cc3s2)c1 | > 4 µM | 0.184 µM | 1.4 µM | 
20 | N=C(N)c1ccc(O)c(/C=C/CNC(=O)c2ccc(-c3ccc(C(N)=O)cc3)cc2)c1 | 2.9 µM | 0.02 µM | 1.4 µM | 
21 | N=C(N)c1ccc(O)c(CCCNC(=O)c2ccc(-c3ccccc3)cc2)c1 | > 4 µM | 0.088 µM | > 2.9 µM | 
22 | N=C(N)c1ccc(O)c(CCCNC(=O)c2ccc(-c3cccc(C(N)=O)c3)cc2)c1 | > 4 µM | 0.007 µM | > 2.9 µM | Ki [1]: 15 µM; Ki (Plasminogen): 3.5 µM; Ki [2]: > 8.7 µM
23 | N=C(N)c1ccc(O)c(CCCNC(=O)c2ccc(-c3ncc[nH]3)cc2)c1 | > 4 µM | 0.058 µM | ~2.9 µM | 
